Consider one compound from patent US20050124618A1, “Methods of modulating angiogenesis and cancer cell proliferation” (priority 2003, published 2005).

In assay [1] the test system is extensor digitorum longus (EDL) and tibialis anterior (TA) muscles. The experiment in a line: Vessel density of EDL and TA muscles after 7 days of electrical stimulation. In kind it is in vivo, rat. The procedure: Experimental protocols and tissue preparation: After a 24-h recovery period, the implanted stimulator was activated by momentary closure of the magnetic reed switch using a small hand-held magnet. […] Contractions of the extensor digitorum longus (EDL) and tibialis anterior (TA) muscles were automatically initiated at 9 AM each day and sustained for 8 h/day over a consecutive 7-day period. At the end of the stimulation period, the animals were euthanized by an overdose of pentobarbital sodium (100 mg/kg ip), and the EDL and TA muscles were harvested for analysis as previously described (Greene A S et al., Hypertension 15: 779-783, 1990; and Parmentier J H et al., Hypertension 37: 623-629, 2001).
Tissue harvest and morphological analysis of vessel density: The stimulated and contralateral muscles were removed, weighed, and rinsed in physiological salt solution. A 300-mg sample was taken from the rostral portion of the TA muscle and frozen in liquid nitrogen for Western blot (100 mg) and HPLC (200 mg) analysis for measurement of VEGF protein expression and 20-HETE formation, respectively. The remaining TA and EDL muscles were lightly fixed in a 0.25% formalin solution overnight. The muscles were sectioned via a manual microtome to a thickness of about 100 μm by securing the tendons and slicing parallel to the longitudinal orientation of the muscle fibers. From every animal, two slices of each EDL muscle and three slices of each TA muscle were made. The slices were than immersed for 2 h in a solution of 25 μg/ml rhodamine-labeled Griffonia simplicifolia I (GS-I) lectin (Sigma; St. Louis, Mo. (Greene A S et al., Hypertension 15: 779-783, 1990)). Immediately after this 2-h exposure to GS-I lectin, the muscles were rinsed in physiological solution. The rinsing procedure was repeated after 15 and 30 min, and the muscles were rinsed in physiological saline solution for 12 h (overnight, at 4° C.). On the next day, the slices were mounted on microscope slides with a water-soluble mounting medium consisting of toluene and acrylic resin (SP ACCU-MOUNT 280, Baxter Scientific).
The labeled sections were visualized using a video fluorescent microscope system (Olympus ULWD CD Plan, ×20 objective, 1.6 cm working distance and 0.4 numerical aperture) with epi-illumination, as previously described (Parmentier J H et al., Hypertension 37: 623-629, 2001). In the present study, 10-15 and 20-25 representative fields were selected for study from each EDL and TA muscle slice, respectively. Each field was converted to a digitized image (DT2801 Data Translation; Marlboro, Mass.) and stored as an 8-bit/pixel image file with a resolution of 512×512 pixels. Morphometric analysis of the scanned histochemical sections was done as previously described (Parmentier J H et al., Hypertension 37: 623-629, 2001).
Data analysis and statistics: For each muscle, the vessel counts of all the selected fields (10-15 scans×2 slices for each EDL muscle; 20-25 scans×3 slices for each TA muscle) were averaged to a single vessel density. Vessel density was expressed in terms of the mean number of vessel-grid intersections per microscope field (0.224 mm^2). For each experimental group, the measured vessel density and 20-HETE formation of the stimulated muscle was compared with its unstimulated counterpart as well as with age-matched controls. All values are presented as means±SE. The significance of differences in values measured in the same animal was evaluated using a two-factor ANOVA (drug×stimulation) with repeated measures on one factor (stimulation). Significant differences were further investigated using a post hoc test (Tukey's).

In another assay the test system is p42/p44 MAPK. Description: Western blot of phospho-p42/p44 MAPK in U251 cells. As to conditions: 10 μM HET0016, 24 and 48 hr. In kind it is cell-based, human. The procedure: They were then pelleted by centrifugation at 1,000 g for 5 min at 4° C. Cells were lysed by adding RIPA buffer [20 mM HEPES (pH 7.4), 100 mM NaCl, 1% Nonidet P-40, 0.1% SDS, 1% deoxycholic acid, 10% glycerol, 1 mM EDTA, 1 mM NaVO3, 50 mM NaF, and Protease Inhibitors Set 1 (Calbiochem, La Jolla, Calif.)]. Plates were then scraped and cells collected in a 1.5-ml centrifuge tube, followed by incubation on ice for 30 min. Homogenates of the cell suspension were centrifuged for 10 min at 14,000 g and 4° C.; the pellets were discarded and protein concentrations in the supernatant determined by bicinchoninic acid (BCA) protein assay.
Typically, 20 μg of protein was separated on a 14% Tris-glycine gel (Invitrogen) and electroblotted on a PVDF membrane (Biotrace, Bothell, Wash.). Membranes were blocked for 1 h at room temperature with blocking buffer [0.2% I-Block reagent (Tropix, Bedford, Mass.), 0.1% Tween-20 in […]] before incubation with primary antibodies in blocking buffer (overnight at 4° C.). […] Both phospho-tyrosine (Y102) and phospho-serine/threonine-Pro MPM2 were detected using a 1:2000 dilution of the corresponding antibodies, whereas phospho-p44/p42MAPK and phospho-SAPK/JNK were detected using 1:1000 antibody dilutions. […]
(In general: In western blotting, separated proteins are transferred to a membrane and probed.)

The next assay deals with U251 human glioma cells. The experiment in a line: [3H]thymidine incorporation in U251 cells. In kind it is cell-based. Particulars: for inhibition at 10 µM: Homo sapiens. As for the experimental part:
[^3H]Thymidine Incorporation Studies: Thymidine incorporation studies were performed with cells grown in 35-mm culture dishes. […] Palmitic acid and EtOH served as fatty acid and vehicle controls, respectively. At the end of the pulse, the medium was aspirated and the cells rinsed twice with cold 1× phosphate buffered saline (PBS). The rinsed cultures were fixed by exposure to cold 5% trichloracetic acid overnight at 4° C., after which fixed cells were extracted as described previously (Scholler et al., Mol. Pharmacol. 45: 944-954, 1994). A second set of non-fixed dishes was treated with 0.05% trypsin/EDTA to estimate cell numbers. [^3H]thymidine was detected by scintillation counting and expressed as dpm/10^3 cells.
In general terms: Dividing cells build labelled thymidine or BrdU into new DNA.

Setting [2] is: chronic treatment, 7 days electrical stimulation.

Read-outs that look alike come from different tables or passages of the source.

Regarding `CCCCc1ccc(N=CNO)c(C)c1` [HET0016, N-hydroxy-N′-(4-butyl-2 methylphenyl) formamidine], in assay [1] (7 days, HET0016 2 mg kg−1 day−1, ABT 50 mg kg−1 day−1), the “effect on the increase in vessel density (angiogenesis) induced by electrical stimulation” value is listed as “completely blocked”. Further, in assay [1] (chronic treatment, 7 days), the “vessel density, EDL, unstimulated side” value is 116.0±1.0 number of vessel intersections and the “vessel density, TA, unstimulated side” value is recorded as 105.7±4.9 number of vessel intersections. For the same compound, in assay [1] (setting [2]), the “vessel density, EDL, stimulated side” value was 118.0±10.1 number of vessel intersections and the “vessel density, TA, stimulated side” value is given as 110.5±1.1 number of vessel intersections. The “phosphorylation of p42/p44 MAPK” value in the assay with p42/p44 MAPK is given as “specifically inhibited phosphorylation”. Further, the “inhibition of DNA synthesis ([3H]thymidine incorporation/uptake)” value in the assay on U251 human glioma cells (10 μM HET0016, approximately 48 hr) was determined as 66%. In addition, the inhibition at 10 µM with U251 human glioma cells (U-251, 10 μM HET0016, approximately 24 hr, read-out: inhibition of DNA synthesis ([3H]thymidine incorporation)) stood at 50%. Moreover, the inhibition at 10 µM in the assay on U251 human glioma cells (U-251, 10 μM HET0016, approximately 48 hr, read-out: inhibition of DNA synthesis ([3H]thymidine incorporation/uptake)) came to 65%.
